Data reported in PubChem BioAssay AID336 (DTP/NCI, 2004).
“And” between values parts separate entries of the source, which are not always exact repeats. Equal values may be shown once. Inconclusive results and toxic doses are left out.

Tested on: BDF1 mice, P388/VCR leukemia ip, median survival T/C
Experiment: NCI In Vivo Anticancer Drug Screen. Data for tumor model P388 Leukemia resistant to Vincristine; NSC 67574 (intraperitoneal) in B6D2F1 (BDF1) mice
Details: endpoint: median survival time, higher = longer survival
Procedure: The antitumor activity of compounds was measured in mice bearing transplantable tumors. Survival or tumor size were measured and the results are expressed as the measurement made in the treated group (T) divided by the measurement made in the vehicle treated control group (C). The tumor model used in this assay is P388 Leukemia resistant to Vincristine; NSC 67574 (intraperitoneal) in B6D2F1 (BDF1) mice

[1] = dose: 25.0 mg/kg/injection, schedule: Q01DX010 (ip), vehicle: saline
[2] = dose: 5.0 mg/kg/injection, schedule: Q01DX010 (ip), vehicle: saline
[3] = dose: 10.0 mg/kg/injection, schedule: Q01DX010 (ip), vehicle: saline
[4] = dose: 40.0 mg/kg/injection, schedule: Q01DX010 (ip), vehicle: saline
[5] = dose: 125.0 mg/kg/injection, schedule: Q01DX010 (ip), vehicle: saline
[6] = dose: 250.0 mg/kg/injection, schedule: Q01DX010 (ip), vehicle: saline
[7] = dose: 500.0 mg/kg/injection, schedule: Q01DX010 (ip), vehicle: saline

## Nc1nc2n[nH]nc2c(=O)[nH]1
dose: 25.0 mg/kg/injection, schedule: Q01DX010 (ip), vehicle: alkali diluted with saline
  T/C: 155 % of control and 170 % of control
dose: 50.0 mg/kg/injection, schedule: Q01DX010 (ip), vehicle: alkali diluted with saline
  T/C: 162 % of control and 191 % of control
dose: 100.0 mg/kg/injection, schedule: Q01DX010 (ip), vehicle: alkali diluted with saline
  T/C: 170 % of control and 204 % of control
dose: 200.0 mg/kg/injection, schedule: Q01DX010 (ip), vehicle: alkali diluted with saline
  T/C: 177 % of control and 204 % of control

## C=CC(CN1CC1)OC(C)=O (configuration not stated)
dose: 2.0 mg/kg/injection, schedule: Q01DX010 (ip), vehicle: saline
  T/C: 116 % of control
dose: 8.0 mg/kg/injection, schedule: Q01DX010 (ip), vehicle: saline
  T/C: 123 % of control

## COC(=O)C[C@](O)(CCC(C)(C)O)C(=O)O[C@@H]1C(OC)=C[C@]23CCCN2CCc2cc4c(cc2[C@H]13)OCO4
dose: 0.25 mg/kg/injection, schedule: Q01DX009 (ip), vehicle: saline
  T/C: 92 % of control
dose: 0.5 mg/kg/injection, schedule: Q01DX009 (ip), vehicle: saline
  T/C: 100 % of control
dose: 1.0 mg/kg/injection, schedule: Q01DX009 (ip), vehicle: saline
  T/C: 88 % of control

## O=C1C(NC(=O)C2CCCCC2)=C(N2CC2)C(=O)C(NC(=O)C2CCCCC2)=C1N1CC1
[1]
  T/C: 103 % of control
dose: 50.0 mg/kg/injection, schedule: Q01DX010 (ip), vehicle: saline
  T/C: 115 % of control
dose: 100.0 mg/kg/injection, schedule: Q01DX010 (ip), vehicle: saline
  T/C: 115 % of control
dose: 200.0 mg/kg/injection, schedule: Q01DX010 (ip), vehicle: saline
  T/C: 123 % of control

## C[C@@H]1C[C@@H]([C@H](O)CC2CC(=O)NC(=O)C2)C(=O)[C@@H](C)C1
[2]
  T/C: 92 % of control and 108 % of control
[3]
  T/C: 100 % of control and 104 % of control
dose: 20.0 mg/kg/injection, schedule: Q01DX010 (ip), vehicle: saline
  T/C: 112 % of control and 116 % of control
[4]
  T/C: 120 % of control and 124 % of control

## CCC1(O)CC2CN(CCc3c([nH]c4ccccc34)C(C(=O)OC)(c3cc4c(cc3OC)N(C)C3C(O)(C(N)=O)C(O)C5(CC)C=CCN6CCC43C65)C2)C1 (configuration not stated) (tested in a mixture with another compound)
dose: 500.0 micrograms/kg/injection, schedule: Q04DX003 (ip), vehicle: saline
  T/C: 107 % of control
dose: 648.0 micrograms/kg/injection, schedule: Q04DX003 (ip), vehicle: saline
  T/C: 106 % of control
dose: 1000.0 micrograms/kg/injection, schedule: Q04DX003 (ip), vehicle: saline
  T/C: 118 % of control
dose: 1080.0 micrograms/kg/injection, schedule: Q04DX003 (ip), vehicle: saline
  T/C: 100 % of control
dose: 1800.0 micrograms/kg/injection, schedule: Q04DX003 (ip), vehicle: saline
  T/C: 98 % of control
dose: 4000.0 micrograms/kg/injection, schedule: Q04DX003 (ip), vehicle: saline
  T/C: 110 % of control

## c1ccc(CCSc2ncnc3nc[nH]c23)cc1
dose: 62.5 mg/kg/injection, schedule: Q01DX010 (ip), vehicle: saline
  T/C: 88 % of control
[5]
  T/C: 88 % of control
[6]
  T/C: 96 % of control
[7]
  T/C: 107 % of control

## CC1CN1P(=S)(N1CC1C)N1CC1C (configuration not stated)
dose: 1.25 mg/kg/injection, schedule: Q01DX010 (ip), vehicle: saline
  T/C: 93 % of control
dose: 2.5 mg/kg/injection, schedule: Q01DX010 (ip), vehicle: saline
  T/C: 96 % of control and 100 % of control
[2]
  T/C: 100 % of control
[3]
  T/C: 93 % of control and 107 % of control

## Nc1cc(C(=O)Nc2ccc(C3=NCCN3)cc2)cc(C(=O)Nc2ccc(C3=NCCN3)cc2)c1
dose: 32.0 mg/kg/injection, schedule: Q01DX010 (ip), vehicle: saline
  T/C: 156 % of control
dose: 64.0 mg/kg/injection, schedule: Q01DX010 (ip), vehicle: saline
  T/C: 165 % of control

## COc1cccc2c1C(=O)c1c(O)c3c(c(O)c1C2=O)C[C@@](O)(C(C)=O)C[C@@H]3OC1CC(N)C(O)C(C)O1 (some centres not stated)
dose: 3.6 mg/kg/injection, schedule: Q04DX003 (ip), vehicle: water
  T/C: 110 % of control
dose: 6.0 mg/kg/injection, schedule: Q04DX003 (ip), vehicle: water
  T/C: 104 % of control
dose: 8.0 mg/kg/injection, schedule: Q04DX003 (ip), vehicle: water
  T/C: 114 % of control

## O=CCC(O)C(O)C(O)CO (configuration not stated)
[5]
  T/C: 88 % of control
[6]
  T/C: 88 % of control and 92 % of control
[7]
  T/C: 92 % of control and 100 % of control

## Nc1nc(=S)c2[nH]cnc2[nH]1
dose: 1.25 mg/kg/injection, schedule: Q01DX010 (ip), vehicle: other
  T/C: 165 % of control
dose: 5.0 mg/kg/injection, schedule: Q01DX010 (ip), vehicle: other
  T/C: 103 % of control and 107 % of control

## NC(C/[N+]([O-])=N/O)C(=O)O (configuration not stated)
dose: 173.0 mg/kg/injection, schedule: Q04DX003 (ip), vehicle: sodium bicarbonate
  T/C: 157 % of control
dose: 288.0 mg/kg/injection, schedule: Q04DX003 (ip), vehicle: sodium bicarbonate
  T/C: 179 % of control
dose: 480.0 mg/kg/injection, schedule: Q04DX003 (ip), vehicle: sodium bicarbonate
  T/C: 181 % of control
dose: 800.0 mg/kg/injection, schedule: Q04DX003 (ip), vehicle: sodium bicarbonate
  T/C: 118 % of control

## O=C(Nc1cccc(NC(=O)Nc2cccc(C3=NCCN3)c2)c1)Nc1cccc(C2=NCCN2)c1
[4]
  T/C: 154 % of control
dose: 90.0 mg/kg/injection, schedule: Q01DX010 (ip), vehicle: saline
  T/C: 118 % of control

## COS(C)(=O)=O
dose: 12.5 mg/kg/injection, schedule: Q01DX010 (ip), vehicle: saline
  T/C: 123 % of control
[1]
  T/C: 103 % of control

## COc1cc([C@@H]2c3cc4c(cc3[C@@H](OC3OC5COC(C)OC5C(O)C3O)[C@H]3COC(=O)[C@H]23)OCO4)cc(OC)c1O (some centres not stated)
dose: 7.48 mg/kg/injection, schedule: Q04DX003 (ip), vehicle: other
  T/C: 274 % of control
dose: 12.5 mg/kg/injection, schedule: Q04DX003 (ip), vehicle: other
  T/C: 250 % of control
dose: 20.8 mg/kg/injection, schedule: Q04DX003 (ip), vehicle: other
  T/C: 307 % of control
dose: 34.6 mg/kg/injection, schedule: Q04DX003 (ip), vehicle: other
  T/C: 340 % of control

## CCN(CC)CCNc1ccc(CO)c2sc3ccccc3c(=O)c12
dose: 21.6 mg/kg/injection, schedule: Q01DX009 (ip), vehicle: water
  T/C: 109 % of control
dose: 25.2 mg/kg/injection, schedule: Q01DX009 (ip), vehicle: water
  T/C: 120 % of control
dose: 36.0 mg/kg/injection, schedule: Q01DX009 (ip), vehicle: water
  T/C: 112 % of control
dose: 114.0 mg/kg/injection, schedule: Q01DX009 (ip), vehicle: water
  T/C: 90 % of control
